Laboratory results as given in patent publication US20100249234A1, “METHODS OF REDUCING VIRULENCE IN BACTERIA” (UWM RESEARCH FOUNDATION, INC., priority 2007, published 2010).

Columns and labels:
Assay type in all cases: cell-based, Dickeya dadantii 3937 (Ech3937)
hrpL mRNA = experiment: qRT-PCR relative mRNA level of hrpL
Protocol: (§1) Bacterial strains were grown in MM. Total RNA from the bacterial cells was isolated by using the TRI reagent method (Sigma, Mo.) and treated with Turbo DNA-free DNase kits (Ambion, TX) as described (Peng et al., 2006). An iScript cDNA Synthesis Kit (Bio-Rad, CA) was used to synthesize cDNA from 0.5 μg of treated total RNA. The Real Master Mix (Eppendorf, Westbury, N.Y.) was used for qRT-PCR reaction to quantify the cDNA level of target genes in different samples. The rplU was used as the endogenous control for data analysis. qRT-PCR data were analyzed using Relative Expression Software Tool as described (Pfaffl, M. W., Horgan, G. W., and Dempfle, L. (2002) Relative expression software tool (REST) for group-wise comparison and statistical analysis of relative expression results in real-time PCR. Nucleic Acids Res 30:e36.).

hrpL promoter = hrpL promoter activity, GFP reporter plasmid phrpL, flow cytometry (FACS)
Protocol: (§2) FACS analysis of promoter activity of dspE, hrpA, hrpL, hrpN, and hrpS was carried out as described (Peng et al., 2006). Briefly, the wild-type Ech3937 and the mutant strains carrying the promoter reporter plasmid were grown on LB broth at 28° C. overnight and transferred to appropriate media. For FACS analysis, samples were collected by centrifugation, washed with 1× phosphate buffer saline (PBS) at 13,000 rpm for 1 min, and re-suspended in 1×PBS to ca 10^6 CFU/ml prior to being run in a FACS Calibur flow cytometer (BD Biosciences, CA). Three replicates were performed for each treatment.
(§3) Since OCA and TCA induced the expression of hrpN, the effect of these two phenolic compounds on the expression of hrpA, hrpL, and hrpS was investigated further. […] GFP intensity was determined on gated populations of bacterial cells by flow cytometry and analyzed with the Cell Quest software (BD Biosciences, San Jose, Calif.). The lines labeled “1” stand for the GFP expression control base level of the Ech3937 containing pPROBE-AT vector; lines labeled “2” stand for the promoter activity of hrpS, hrpL, hrpA and hrpN in Ech3937 in MM; lines labeled “3” stand for the promoter activity of Ech3937 in MM supplemented with 0.1 mM OCA; lines labeled “4” stand for the promoter activity of hrpL mutant WPP96 in MM; lines labeled “5” stand for the promoter activity of hrpL mutant WPP96 in MM supplemented with 0.1 mM OCA. Values are representative of at least two experiments. […] Compared with MM alone, the average GFP fluorescence intensity of bacterial cells of Ech3937 (phrpA) was doubled when 0.1 mM of OCA and TCA were added to the medium (Table 4; FIG. 3). […] The mrp, whose protein product has an ATPase conserved domain (2e-06), was used as a reference gene in this study.

hrpN promoter = hrpN promoter activity, GFP reporter plasmid phrpN, flow cytometry (FACS); conditions: for GFP intensity (Mean Fluorescence Intensity) of WPP96 (phrpN): hrpL mutant WPP96; for GFP intensity (Mean Fluorescence Intensity) of Ech138 (phrpN): iaaM mutant Ech138, MM + 0.1 mM OCA; for GFP intensity (Mean Fluorescence Intensity) of WPP90 (phrpN): hrpS mutant WPP90; for GFP intensity (Mean Fluorescence Intensity) of WPP67 (phrpN): hrpX mutant WPP67; for GFP intensity (Mean Fluorescence Intensity) of WPP92 (phrpN): hrpY mutant WPP92
hrpS mRNA = experiment: qRT-PCR relative mRNA level of hrpS
Protocol: as §1

gacA mRNA = experiment: qRT-PCR relative mRNA level of gacA; conditions: MM supplemented with OCA, p>0.5 (FIG. 4)
Protocol: as §1

dspE mRNA = experiment: qRT-PCR relative mRNA level of dspE
Protocol: as §1

hrpY mRNA = experiment: qRT-PCR relative mRNA level of hrpY; conditions: MM supplemented with OCA, p>0.5 (FIG. 4)
Protocol: as §1

mrp promoter = experiment: mrp (reference gene) promoter activity, GFP reporter pmrp, flow cytometry (FACS); conditions: for GFP intensity (Mean Fluorescence Intensity) of Ech3937 (pmrp): reference gene
Protocol: as §2, §3

pPROBE-AT vector = experiment: GFP expression control base level, pPROBE-AT vector, flow cytometry (FACS)
Protocol: as §2, §3

HrpN = HrpN protein expression; conditions: MM supplemented with 0.1 mM of PCA (FIG. 15)
Source text: To further elucidate whether T3SS gene expression is mainly regulated through the HrpX/Y-HrpS-HrpL regulatory pathway, the expression of hrpA and hrpN in wild-type Ech3937 and hrpX (WPP67), hrpY (WPP92), hrpS (WPP90), and hrpL (WPP96) mutants in MM were examined. […] Similar expression of hrpA and hrpN was observed among WPP67, WPP92, WPP90 and WPP96 carrying phrpA and phrpN grown in MM and MM supplemented with PCA. […] Since PCA represses the expression of several T3SS genes such as hrpN, the effect of PCA on protein production of HrpN was further examined.

hrpN mRNA = experiment: qRT-PCR relative mRNA level of hrpN; conditions: 0.1 mM PCA, P=0.001 (FIG. 14)
Protocol: as §1

[1] = MM + 0.1 mM compound, 12 h (Table 4)
[2] = MM supplemented with PCA vs MM alone (normalized to 1), P=0.001
[3] = MM + 0.1 mM PCA (MMPCA), 12 h (Table 10)
[4] = MM + 0.1 mM PCA (MMPCA), 24 h (Table 10)
[5] = MM + 0.1 mM PCA, 12 h (Table 10)
[6] = MM + 0.1 mM PCA, 24 h (Table 10)

In the case of `O=C(O)/C=C/c1ccccc1O` [OCA, o-coumaric acid], the “hrpL mRNA compared with MM alone (qRT-PCR)” value (hrpL mRNA; 0.1 mM OCA, 12 h of growth, P<0.01) is reported as “about 3 fold”, the “promoter activity of hrpL compared with MM alone” value (hrpL promoter; Ech3937, MM + 0.1 mM compound, 12 h) is reported as “slightly higher promoter activity” and the “GFP intensity (Mean Fluorescence Intensity) of Ech3937 (phrpL)” value (shortened to “GFP intensity … of Ech3937 (phrpL)”) (hrpL promoter; [1]) is reported as 19 ± 0. The “GFP intensity (Mean Fluorescence Intensity) of WPP96 (phrpL)” value (hrpL promoter; hrpL mutant WPP96, MM + 0.1 mM compound, 12 h (Table 4)) was 313 ± 29, the “increase of average GFP fluorescence intensity of Ech3937 (phrpN) compared with MM alone” value (hrpN promoter; 0.05 mM compound added to MM, 12 h and 24 h (FIGS. 2A, 2B)) was “approximately 4 fold” and the “induction of hrpN expression in Ech3937 and in hrpX (WPP67), hrpY (WPP92), hrpS (WPP90) mutants” value (hrpN promoter; 0.1 mM compound in MM, 12 h (FIG. 5)) was “induced the expression of hrpN in Ech3937, but not in hrpX, hrpY, and hrpS mutants”. For the same molecule, the “GFP intensity (Mean Fluorescence Intensity) of Ech3937 (phrpN)” value (“GFP intensity … of Ech3937 (phrpN)” below) (hrpN promoter; MM + 0.1 mM OCA (MMOCA), 6 h (Table 5)) was 31 ± 3, the “GFP intensity … of Ech3937 (phrpN)” value (hrpN promoter; MM + 0.1 mM OCA (MMOCA), 12 h (Table 5)) was 91 ± 8 and the “GFP intensity … of Ech3937 (phrpN)” value (hrpN promoter; MM + 0.1 mM OCA (MMOCA), 24 h (Table 5)) was 78 ± 8. The “GFP intensity … of Ech3937 (phrpN)” value (hrpN promoter; [1]) was 94 ± 3, the “GFP intensity (Mean Fluorescence Intensity) of WPP96 (phrpN)” value (“GFP intensity … of WPP96 (phrpN)” for short) (hrpN promoter; [1]) was 3.3 ± 0.1 and the “GFP intensity (Mean Fluorescence Intensity) of Ech138 (phrpN)” value (“GFP intensity … of Ech138 (phrpN)” for short) (hrpN promoter; 6 h) was 9.1 ± 1.6. The “GFP intensity … of Ech138 (phrpN)” value (hrpN promoter; 12 h) was 33 ± 5, the “GFP intensity … of Ech138 (phrpN)” value (hrpN promoter; 24 h) was 39 ± 5 and the “hrpS gene expression, MM vs supplemented MM (qRT-PCR)” value (hrpS mRNA; MM supplemented with OCA, p>0.5 (FIG. 4)) was “No significant difference”. For the same molecule, the “gacA gene expression, MM vs supplemented MM (qRT-PCR)” value (gacA mRNA) was “No significant difference”, the “dspE mRNA compared with MM alone (qRT-PCR)” value (dspE mRNA; MM supplemented with 0.1 mM OCA (FIG. 4)) was “significantly higher amount” and the “hrpY gene expression, MM vs supplemented MM (qRT-PCR)” value (hrpY mRNA) was “No significant difference”. For the same molecule, the “mrp expression in Ech3937 (pmrp) compared with MM” value (mrp promoter; MM + 0.1 mM compound, 12 h) was “slightly higher mrp expression”, the “GFP intensity (Mean Fluorescence Intensity) of Ech3937 (pmrp)” value (from here on “GFP intensity … (pmrp)”) (mrp promoter; [1]) was 97.7 ± 1.6 and the “GFP intensity (Mean Fluorescence Intensity) of Ech3937 (pPROBE-AT)” value (“GFP intensity … (pPROBE-AT)” for short) (pPROBE-AT vector; MM + 0.1 mM OCA, 6 h) was 2.0 ± 0. The “GFP intensity … (pPROBE-AT)” value (pPROBE-AT vector; MM + 0.1 mM OCA, 12 h) was 2.0 ± 0, the “GFP intensity … (pPROBE-AT)” value (pPROBE-AT vector; MM + 0.1 mM OCA, 24 h) was 1.9 ± 0 and the “GFP intensity … (pPROBE-AT)” value (pPROBE-AT vector; [1]) was 2.0 ± 0.
With `O=C(O)/C=C/c1ccc(O)cc1` [PCA, p-coumaric acid] the “amount of HrpN protein compared with MM alone” value (HrpN) was “lower amount of HrpN”, the “hrpL mRNA relative expression ratio” value (hrpL mRNA; [2]) was 0.039 and the “GFP intensity … of Ech3937 (phrpL)” value (hrpL promoter; [3]) was 7.8 ± 0.1. The “GFP intensity … of Ech3937 (phrpL)” value (hrpL promoter; [4]) was 11.1 ± 3.3, the “GFP intensity … of Ech3937 (phrpN)” value (hrpN promoter; [3]) was 6.8 ± 0.8 and the “GFP intensity … of Ech3937 (phrpN)” value (hrpN promoter; MM + 0.1 mM PCA (MMPCA), 12 h (Table 11)) was 4.3 ± 0.1. The “GFP intensity … of Ech3937 (phrpN)” value (hrpN promoter; [4]) was 11.3 ± 3.4, the “GFP intensity … of Ech3937 (phrpN)” value (hrpN promoter; MM + 0.1 mM PCA (MMPCA), 24 h (Table 11)) was 8.8 ± 2.1 and the “promoter activity (expression) of hrpN compared with MM alone” value (hrpN promoter; MM supplemented with 0.1 mM PCA) was “reduced expression”. For the same molecule, the “GFP intensity … of WPP96 (phrpN)” value (hrpN promoter; MM + 0.1 mM PCA, 12 h) was 3.0 ± 0.0, the “GFP intensity … of WPP96 (phrpN)” value (hrpN promoter; MM + 0.1 mM PCA, 24 h) was 4.3 ± 0.1 and the “GFP intensity (Mean Fluorescence Intensity) of WPP90 (phrpN)” value (hrpN promoter; MM + 0.1 mM PCA, 12 h) was 3.5 ± 0.1. The “GFP intensity (Mean Fluorescence Intensity) of WPP90 (phrpN)” value (hrpN promoter; MM + 0.1 mM PCA, 24 h) was 5.1 ± 0.1, the “GFP intensity (Mean Fluorescence Intensity) of WPP67 (phrpN)” value (hrpN promoter; MM + 0.1 mM PCA, 12 h) was 3.5 ± 0.2 and the “GFP intensity (Mean Fluorescence Intensity) of WPP67 (phrpN)” value (hrpN promoter; MM + 0.1 mM PCA, 24 h) was 6.3 ± 0.7. For the same molecule, the “GFP intensity (Mean Fluorescence Intensity) of WPP92 (phrpN)” value (hrpN promoter; MM + 0.1 mM PCA, 12 h) was 3.6 ± 0.1, the “GFP intensity (Mean Fluorescence Intensity) of WPP92 (phrpN)” value (hrpN promoter; MM + 0.1 mM PCA, 24 h) was 5.5 ± 0.3 and the “hrpS mRNA relative expression ratio” value (hrpS mRNA; [2]) was 0.223. The “dspE mRNA compared with MM alone (normalized to 1), qRT-PCR” value (dspE mRNA; 0.1 mM PCA, P=0.001 (FIG. 14)) was “significantly lower amount of mRNA”, the “GFP intensity … (pmrp)” value (mrp promoter; [5]) was 124.1 ± 2.7 and the “GFP intensity … (pmrp)” value (mrp promoter; [6]) was 98.9 ± 1.0. The “hrpN mRNA compared with MM alone (normalized to 1), qRT-PCR” value (hrpN mRNA) was “significantly lower amount of mRNA”, the “GFP intensity … (pPROBE-AT)” value (pPROBE-AT vector; [5]) was 2.2 ± 0.2 and the “GFP intensity … (pPROBE-AT)” value (pPROBE-AT vector; MM + 0.1 mM PCA, 12 h (Table 11)) was 2.3 ± 0.1. For the same molecule, the “GFP intensity … (pPROBE-AT)” value (pPROBE-AT vector; [6]) was 14.0 ± 10.1 and the “GFP intensity … (pPROBE-AT)” value (pPROBE-AT vector; MM + 0.1 mM PCA, 24 h (Table 11)) was 4.9 ± 0.1.
